Reference: patent US9623077B2, “Use of peptide for alleviating pain” (Academia Sinica, priority 2015, dated 2017)
Where no end group is shown, it is not given here.

How the values were obtained:
[1] = test system: CCI rats; format: in vivo, rat; conditions: i.t. administration, from peak effects of % MPE
Experimental: Implantation of i.t. catheters in rats was performed.
Thermal hyperalgesia was examined using an IITC analgesiometer (IITC Inc., Woodland Hills, Calif., USA). […] Paw withdrawal latency (PWL) in seconds was measured with a cutoff time of 30 seconds. PWL was recorded at 30, 60, 90, 120, 150, and 180 minutes after PCD-1 or gabapentin injection. PWL (s) was transformed to a percentage of the maximum possible effect (% MPE) using the following formula: % MPE=(post-drug latency−baseline)/(cutoff−baseline)×100%, where the post-drug latency was the response measured at 0, 30, 60, 90, 120, 150, or 180 minutes after injection of PCD-1, gabapentin, or vehicle. The baseline was the response measured immediately prior to i.t. injection, and the cutoff time was 30 seconds.

[2] = test system: RAW264.7 cells; design: dose or concentration left out as unconfirmed; conditions: PCD-1 for 24 h
Experimental: (A) RAW264.7 cells are treated with the indicated doses of PCD-1 for 24 h, and cell viability is then measured by Alamar blue assay to assess cytotoxicity.
In order to investigate regulation of iNOS and COX-2 by PCD-1, mouse macrophage and immune cells were treated with non-cytotoxic doses of PCD-1, and the effects on protein expression were examined.

[3] = test system: CCI rats
Experimental: The rat model of chronic constriction injury (CCI) was performed by following the previous reports or research. Implantation of i.t. catheters in rats was performed. The i.t. catheters (PE5 tubes: 9-cm long, 0.008-inch inner diameter, 0.014-inch outer diameter; Spectranetics, Colorado Springs, Colo., USA) were inserted via the atlanto-occipital membrane into the i.t. space at the level of the lumbar enlargement of the spinal cord, and externalized and fixed to the cranial aspect of the head. Five days after i.t. catheterization, CCI or mononeuropathy was induced by following a previous report. The 5-mm-long nerve segment of right sciatic nerve at the mid-thigh level was isolated from the surrounding tissues. Four ligatures (4-0 chromic gut) were loosely tied around the sciatic nerve with 1-mm intervals, and the wound was closed with sutures.
The narrow beam used in the present invention was a wooden beam 80 cm in length and 2.5 cm in width, suspended 100 cm from the ground by wooden supports at either end. Foam padding (1 m wide and approximately 12 cm thick) was placed beneath the beam to prevent injury to the rat in case of a fall. The cutoff time to cross the beam was 15 seconds for each rat. Rats were pre-trained before the test.

[4] = test system: rats; conditions: rats treated with PCD-1

Row | Compound | median effective dose (ED50) for anti-thermal hyperalgesia [1] | Proliferation of RAW264.7 cells (cell viability, Alamar blue) [2] | latency to initiate crossing and total time to cross the beam ([3]; CCI rats+PCD-1 (20 μg) vs CCI rats+vehicle, 0 to 480 minutes) | locomotor function ([3]; rats, i.t. 20 μg) | alterations of external behavior [4]
1 | NCC1(CC(=O)O)CCCCC1 [gabapentin, reference compound] | 2.3 ± 1.5 µg | – | – | – | –
2 | FFHHIFRGIVHVGKTIHRLVTG [PCD-1, Piscidin-1] [listing 1 of 2 here] | – | unaffected | No significant differences | did not affect | nor did it result in any obvious alterations
3 | FFHHIFRGIVHVGKTIHRLVTG [PCD-1, Piscidin-1] [listing 2 of 2 here] | 9.5 ± 3.2 µg | – | – | – | –
